These results are taken from ChEMBL document CHEMBL3091276, “Design, synthesis and evaluation of 6-(4-((substituted-1H-1,2,3-triazol-4-yl)methyl)piperazin-1-yl)phenanthridine analogues as antimycobacterial agents” (Bioorg Med Chem Lett, 2013).

Data set [1] has as its system Mycobacterium tuberculosis. The data set can be described thus: Antimycobacterial activity in Mycobacterium tuberculosis H37Rv after 5 days by Alamar Blue assay. It is filed as functional. The conditions noted are these: 120 h. (In general: Resazurin is reduced to fluorescent resorufin, in cell work by metabolically active cells.)
Another data set concerns RAW264.7. In words: Cytotoxicity against mouse RAW264.7 cells by MTT assay. It is filed as cell-based.
Data set [2] is described as follows: Cytotoxicity against mouse RAW264.7 cells at 50 ug/ml by MTT assay relative to control. It is filed as cell-based. The conditions noted are these: read-out: INH.
The nature of data set [3]: Selectivity index, ratio of IC50 for mouse RAW264.7 cells to MIC99 for Mycobacterium tuberculosis H37Rv. It is filed as toxicity. The settings on record: read-out: Selectivity Index.

In brackets after ≈: the same amount, converted by molar mass. A value given as a limit tells only on which side of the number the result lay.

A word on the MIC99: it is the lowest concentration that inhibits either 99% of growth or 99% of the strains tested, depending on the study. A higher MIC99 goes with lower susceptibility. For `c1ccc(Cn2cc(CN3CCN(c4nc5ccccc5c5ccccc45)CC3)nn2)cc1`, in data set [1], the MIC99 amounted to 50 µg/mL (≈ 115 µM).
The same measure, in the same setting: in the case of `CCc1ccc(-n2cc(CN3CCN(c4nc5ccccc5c5ccccc45)CC3)nn2)cc1` it was 50 µg/mL (≈ 111 µM); in that of `Cc1ccc(-n2cc(CN3CCN(c4nc5ccccc5c5ccccc45)CC3)nn2)c(C)c1`, 12.5 µg/mL (≈ 27.9 µM); in that of `c1ccc2c(c1)nc(N1CCN(Cc3cn(-c4ccc5c(c4)OCO5)nn3)CC1)c1ccccc12`, 50 µg/mL (≈ 108 µM).
Same read-out and setting: in the case of `COc1cccc(-n2cc(CN3CCN(c4nc5ccccc5c5ccccc45)CC3)nn2)c1` it was 50 µg/mL (≈ 111 µM).
Broadly, the IC50 is the midpoint of a concentration-inhibition curve. In the case of `COc1ccc(-n2cc(CN3CCN(c4nc5ccccc5c5ccccc45)CC3)nn2)cc1`, the IC50 in the data set on RAW264.7 is greater than 125 µg/mL. Also, in data set [1], the MIC99 was determined as 3.12 µg/mL (≈ 6.94 µM). For the same compound, the cytotoxicity at 50 ug/ml in data set [2] is 19.2%. In addition, the selectivity ratio in data set [3] is greater than 15.
Take `Clc1ccc(-n2cc(CN3CCN(c4nc5ccccc5c5ccccc45)CC3)nn2)cc1Cl`: in data set [1], the MIC99 stood at 50 µg/mL (≈ 102 µM).
In turn, `Clc1ccc(-n2cc(CN3CCN(c4nc5ccccc5c5ccccc45)CC3)nn2)cc1` displayed an MIC99 in data set [1] of 25 µg/mL (≈ 54.9 µM).
Still for that read-out and setting: then `Clc1ccccc1-n1cc(CN2CCN(c3nc4ccccc4c4ccccc34)CC2)nn1`, with 12.5 µg/mL (≈ 27.5 µM).
Regarding `Clc1cccc(-n2cc(CN3CCN(c4nc5ccccc5c5ccccc45)CC3)nn2)c1`, the IC50 in the data set with RAW264.7 is greater than 150 µg/mL. Further, the MIC99 in data set [1] was 3.12 µg/mL (≈ 6.87 µM). In addition, the cytotoxicity at 50 ug/ml in data set [2] was determined as 12.6%. The selectivity ratio in data set [3] was greater than 20.
With `Brc1ccccc1-n1cc(CN2CCN(c3nc4ccccc4c4ccccc34)CC2)nn1`, the MIC99 in data set [1] worked out at 50 µg/mL (≈ 100 µM).
The same measure, in the same setting: then `Brc1ccc(-n2cc(CN3CCN(c4nc5ccccc5c5ccccc45)CC3)nn2)cc1`, with 12.5 µg/mL (≈ 25 µM); and `Fc1ccc(-n2cc(CN3CCN(c4nc5ccccc5c5ccccc45)CC3)nn2)cc1Cl`, with 50 µg/mL (≈ 106 µM); and `Fc1ccc(-n2cc(CN3CCN(c4nc5ccccc5c5ccccc45)CC3)nn2)cc1F`, with 25 µg/mL (≈ 54.8 µM).
On the same count and under the same terms, in the case of `Fc1ccc(-n2cc(CN3CCN(c4nc5ccccc5c5ccccc45)CC3)nn2)cc1` it was 25 µg/mL (≈ 57 µM).
On the same count and under the same terms, in the case of `FC(F)(F)c1cccc(-n2cc(CN3CCN(c4nc5ccccc5c5ccccc45)CC3)nn2)c1` it was 12.5 µg/mL (≈ 25.6 µM); in that of `O=[N+]([O-])c1cccc(-n2cc(CN3CCN(c4nc5ccccc5c5ccccc45)CC3)nn2)c1`, 6.25 µg/mL (≈ 13.4 µM).
Regarding `O=S(=O)(c1ccccc1)n1cc(CN2CCN(c3nc4ccccc4c4ccccc34)CC2)nn1`, the IC50 in the data set with RAW264.7 is greater than 425 µg/mL. In data set [1], this compound displayed an MIC99 of 1.56 µg/mL (≈ 3.22 µM). In data set [2], the cytotoxicity at 50 ug/ml amounted to 5.82%. In addition, the selectivity ratio in data set [3] is greater than 125.
Regarding `Cc1ccc(S(=O)(=O)n2cc(CN3CCN(c4nc5ccccc5c5ccccc45)CC3)nn2)cc1`, in data set [1], the MIC99 was determined as 12.5 µg/mL (≈ 25.1 µM).
The same measure, in the same setting: then `NNC(=O)c1ccncc1` [ISONIAZID], with 0.36 µg/mL (≈ 2.63 µM).
For the compound `CO[C@H]1/C=C/O[C@@]2(C)Oc3c(C)c(O)c4c(O)c(c(/C=N/N5CCN(C)CC5)c(O)c4c3C2=O)NC(=O)/C(C)=C\C=C\[C@H](C)[C@H](O)[C@@H](C)[C@@H](O)[C@@H](C)[C@H](OC(C)=O)[C@@H]1C` [RIFAMPIN], the MIC99 in data set [1] is 0.02 µg/mL (≈ 0.0243 µM).
